The results in this text go back to patent publication US8580496B2, “Method and kit for the detection of genes associated with PIK3CA mutation and involved in PI3K/AKT pathway activation in the ER-postitive and HER2-positive subtypes with clinical implications” (Universite Libre de Bruxelles, priority 2008, dated 2013).

Assay [1] has as its system breast cancer patients. In words: Clinical outcome of breast cancer patients treated with tamoxifen, by PIK3CA mutated signature. Type of assay: in vivo, human. An excerpt:
Primary breast cancer tumour samples from a previously described “tamoxifen-only treated” data set (Loi, 2007; J. Clin Oncol., 25, 1239-46;) were collected for DNA extraction and mutation analysis. The inventors obtained DNA from 173 samples for PIK3CA mutation sequencing and from 131 samples for AKT1 mutation analysis. The median follow-up of these samples was 9.0 yrs (range: 8.2-9.8 yrs), with 45 (28%) distant metastatic events.
Part of the tamoxifen-treated dataset has previously been described (Loi, 2007). Another 77 primary breast cancer samples also treated with tamoxifen monotherapy with corresponding Affymetrix gene expression data was also used for the survival analysis.
The inventors have developed an index called the PIK3CA index that could measure the similarity between the expression profile of any given tumour sample and the PI3K/AKT pathway activation by breast cancers with a PIK3CA mutation.
Statistical analysis was performed using the SPSS statistical software package (SPSS Inc. Chicago, Ill.) version 13.0. […]
Breast cancer molecular subgroups were defined using a previously reported method of WIRAPATI ET AL, 2008, Breast cancer […], 10, R65. The gene expression grade index (GGI) was used as a quantification of the expression of proliferation genes (SOTRIOU ET AL, 2006). […]

For assay [2], the system named is PIK3CA mutant lines including MCF7 and T47D. In words: Sensitivity of breast cancer cell lines to tamoxifen, PIK3CA mutant vs normal lines. It counts as cell-based.

As for `CC/C(=C(\c1ccccc1)c1ccc(OCCN(C)C)cc1)c1ccccc1` [tamoxifen], in assay [1] (Her2 positive BC patients with the mutated PIK3CA signature vs the other Her2 positive patients), the response to tamoxifen result was “responded better”. In addition, in assay [1] (luminal B tumours, higher vs lower expression levels of the PIK3CA signature (FIG. 4)), the “benefit from tamoxifen (clinical outcome)” value was “benefit better”. Besides, the sensitivity to tamoxifen result in assay [2] is “more sensitive”.
